Test results as given in patent US6488952B1, “Semisolid therapeutic delivery system and combination semisolid, multiparticulate, therapeutic delivery system” (priority 2001, dated 2002).

Assays:
[1] = Incorporation of BCNU into GMO gel without disruption of the three-dimensional structure; format: physicochemical; conditions: physiologic temperature
Text: The drug, such as BCNU, releases from the semisolid through diffusion, conceivably in a biphasic manner. A first phase involves, for example, a lipophilic drug contained within the lipophilic membrane diffuses therefrom into the aqueous channel 15. The second phase involves diffusion of the drug from the aqueous channel 15 into the external environment. Being lipophilic, BCNU orients itself inside the GMO gel within its proposed lipid bi-layer structure. Thus, incorporating greater than approximately 7.5% BCNU by weight into GMO causes a loss of the integrity of the three-dimensional structure whereby the gel system no longer maintains the semisolid cubic phase, and reverts to the viscous lamellar phase liquid.
It is possible to incorporate approximately 7.5% BCNU by weight into GMO gel at physiologic temperature without disruption of the normal three-dimensional structure. In addition, an average glioma tumor measures approximately 3 centimeters in diameter and equates to approximately 14 cubic centimeters in volume. As a result, approximately 11.5 to 12.0 grams of GMO gel may be implanted into the resection pocket. This equates to a possible drug dosage of approximately 900 milligrams with maximal drug. As stated earlier, the clinically recommended dose of BCNU delivered by Gliadel® Wafers to date is approximately 65 milligrams.

[2] = Miscibility of GMS in H2O; format: physicochemical
Text: It is recognized that alternative semisolids, modified formulations and methods of production exist such that the lipophilic nature of the semisolid can be altered, or in the alternative, the aqueous channels 15 contained within the semisolid can be altered. Thus, various therapeutic agents in varying concentrations may diffuse from the semisolid at differing rates, or be released therefrom over time via the aqueous channels 15 of the semisolid. Hydrophilic substances may be utilized to alter semisolid consistency or drug release by alteration of viscosity, fluidity, surface tension or the polarity of the aqueous component. […] However, because GMS is a surfactant, GMS is miscible in H2O up to approximately 20% weight/weight. For purposes of this disclosure, the term “surfactant” means surface active agent, thus being miscible in H2O in limited concentrations as well as polar substances. Upon heating and stirring, the 80% H2O/20% GMS combination produces a spreadable paste having a consistency resembling hand lotion.

Row | Structure (SMILES) | BCNU incorporated into GMO gel without disruption of the normal three-dimensional structure [1] | miscibility in H2O [2]
1 | O=NN(CCCl)C(=O)NCCCl [BCNU, 1,3-bis[2-chloroethyl]-1-nitrosourea] | approximately 7.5 % by weight | 
2 | CCCCCCCCCCCCCCCCCC(=O)OCC(O)CO (centres unmarked) [GMS, glyceryl monostearate] |  | ≤ 20 % weight/weight
